For experiment [1], the system named is peripheral blood mononuclear cells (PBMC). In words: ELISPOT of IFN-γ producing T cells in PBMC, Example 1. Type of experiment: cell-based, human. Particulars: PBMC receiving the peptide in comparison with PBMC not receiving the peptide.
The subject of experiment [2] is lung cancer patient two with metastasis at stage IV. Put plainly: Change in blood tumor marker levels in the lung cancer patient two, Example 2. Type of experiment: in vivo, human. How it is done: The present example illustrates the case of the lung cancer patient two with metastasis at stage IV, who was administered with the WT1 peptide vaccine. In a similar manner to Example 1, a solution of wild type WT1 peptide (SEQ ID NO: 2) was mixed with Montanide ISA (registered trademark) 51 to provide a water-in-oil emulsion each just before the administration wherein the emulsion was injected intradermally at the upper arm of the patient totally six times, i.d. on day 0, 14, 28, 42, 56, and 71 wherein day 0 represents the day when the first administration was conducted.
The levels of tumor markers, CEA and SLX, were determined in a similar manner to Example 1, and the level of CYFRA (cytokeratin 19 fragments) was determined using Elecsys CYFRA produced by Roche.

For experiment [3], the system named is CTLs reactive to the wild type WT1 peptide-presenting HLA-A*2402 molecule. In words: HLA tetramer method, CTLs reactive to wild type WT1 peptide-presenting HLA-A*2402, Example 3. The class given is in vivo, human. Conditions: two days after the administration; 1.1% three days before the administration. On the procedure:
Subsequently, the number of cytotoxic T cells (CTLs) reactive to the wild type WT1 peptide-presenting HLA-A*2402 molecule in the same patient was determined by an HLA tetramer method. The HLA-A*2402 tetramer was prepared using the wild type WT1 peptide according to the method described in Int. J. Cancer 100, 565-570 (2002). On a flow cytometer, FACS, the cells were stained with the two colors of PE-labeled HLA-A*2402 tetramer and FITC-labeled CD8 antibody, and the double-positive cells were assigned to CTLs recognizing the wild type WT1 peptide, i.e., CTLs reactive to WT1-positive cancer cells. CTL frequency three days before the administration of the peptide was 1.1%, whereas the frequency was increased to 8.8% two days after the administration.

Experiment [4] concerns cancer patient two suffered from acute myeloblastic leukemia (AML-M1) transformed from Myelodysplastic Syndromes (MDS). In words: Leukocyte number and bone marrow leukemic blasts in the leukemia patient, Example 3. Type of experiment: in vivo, human. How it is done:
The present example illustrates the case of the cancer patient two suffered from acute myeloblastic leukemia (AML-M1) transformed from Myelodysplastic Syndromes (MDS), who was administered with the WT1 peptide vaccine. The WT1 peptide used in this example was altered type WT1 peptide: Cys Tyr Thr Trp Asn Gln Met Asn Leu (SEQ ID NO: 3) synthesized by MPS Inc. (U.S.) with GMP grade. In a similar manner to Example 1, the peptide was mixed with MONTANIDE ISA (registered trademark) 51 to provide a water-in-oil emulsion, and the emulsion was injected intradermally at the upper arm of the patient. Leukemic blasts occupied 50% of the bone marrow two days before the administration, while the total number of leukocytes was 1500/μl on the day before the administration. Two days after the administration, the total number of leukocytes was decreased to 700/μl, and the leukemic blasts of the bone marrow reduced to 27%. When a hemopoietic factor, G-CSF, was administered to the patient in the light of the decreased total number of leukocytes, the total number recovered to 2150/μl, and the leukemic blasts of the bone marrow was 11% seven days after the administration.

Where no end group is shown, it is not given here.

Here are results for two sequences from patent publication US7342092B2, “Cancer antigen peptide formulations” (International Institute of Cancer Immunology, Inc., priority 2002, dated 2008).

Regarding CMTWNQMNL [wild type WT1 peptide], the “T cells producing IFN-γ in response to specifically the peptide (ELISPOT)” value in experiment [1] is reported as “found to be more”. Further, the “level of SLX in blood” value in experiment [2] (on and after the 2nd administration, before administration 50 U/ml, upper limit of normal 38 U/ml, FIG. 2) is recorded as “decreased to reach the normal level”. Also, the “level of CEA in blood” value in experiment [2] (on and after the 2nd administration, before administration higher than upper limit of normal 5 ng/ml, FIG. 2) was “decreased”. Also, the “level of CYFRA in blood” value in experiment [2] (on and after the 3rd administration, below the upper limit of normal level, FIG. 2) was less than 2 ng/mL. In experiment [2] (water-in-oil emulsion, overall conclusion of Example 2), the “development of the tumor” value is recorded as “suppressed the development of the tumor”.
For CYTWNQMNL [altered type WT1 peptide], the “CTL frequency (HLA-A*2402 tetramer and CD8 double-positive cells)” value in experiment [3] turned out to be 8.8%. Also, the “leukemic blasts of the bone marrow” value in experiment [4] (seven days after the administration, G-CSF also given) was 11%; in experiment [4] (two days after the administration, 50% two days before the administration) it was 27%. In addition, in experiment [4] (water-in-oil emulsion, overall conclusion of Example 3), the conditions of leukemia result is “improved the conditions of leukemia with decreased ratio of the leukemic blasts in the bone marrow”.
